Where a name gives a salt, the structure may show the parent alone. Values belong to the compound of their own block, whether it stands above or below them.
Experiments:
Vero cells = assay: Cytotoxicity assay (CCK) in Vero cells; format: cell-based, African green monkey; conditions: African green monkey, 48 h
Procedure: (§1) Vero cells were purchased from the American Type Culture Collection (ATCC, […], MD, USA), and were cultured in Minimum Essential Medium (MEM) supplemented with 10% fetal bovine serum (FBS) (GIBCO, Grand Island, NY, USA) and antibiotics (100 U/mL penicillin and […] streptomycin) at 37 °C in a 5% CO2 incubator. EV71 strain SHZH98 isolated from the throat swab sample of an HFMD case occurring in 1998 in China was kindly provided by Dr. Qi Jin (Institute of Pathogen Biology, Chinese Academy of Medical Science and Peking Union Medical School, Beijing, China), and JS-52 strain was a kind gift from Dr. Xiangzhong Ye (Beijing Wantai Biological Pharmacy Enterprise Co., Ltd., Beijing, China). The EV71 BrCr and H strains were purchased from the ATCC. All of EV71 strains were passaged in Vero cells.
Cytotoxicity of all target compounds in Vero cells was analyzed by CCK (TransGen Biotech, Beijing, China) assay. In brief, cells in exponential phase (3 × 10^4 cells/well) were seeded into 96-well culture plates and incubated overnight. Then, the medium was removed and different concentrations of all target compounds were applied in duple. After 48 h incubation, the cytotoxicity of all target compounds was determined by CCK assay. The signals were read at 450 nm on Enspire (Perkin Elmer, Waltham, MA, USA). The TC50 was defined as the concentration that inhibits 50% cellular growth in comparison with the controls. It is calculated by the Reed and Muench method.

[1] = tested on: EV71 H strain (VR-1432, genotype C2); assay: CPE inhibition assay for anti-EV71, H strain; format: cell-based, enterovirus 71 (EV71); conditions: Vero cells; for IC50: Enterovirus A, EV71, CPE, calculated on the organic part, n = 3, read-out: H Strain IC50; for anti-EV71 activity against H strain, in words: compared with BBR
Procedure: (§2) Thus, all newly synthesized BBR analogues were screened for their anti-EV71 potencies in African green monkey kidney (Vero) cells taking BBR as the positive control. EV71 strains used in the present study include different genotype strains, such as H strain (VR-1432, genotype C2), BrCr strain (VR-1775, genotype A), and JS-52 and SHZH98 (genotype C4). The potency against EV71 strains above mentioned of each tested compound was evaluated by the combination of its IC50 and selectivity index (SI) value as the important therapeutic indication.
as §1
(§3) The anti-EV71 activities of all tested compounds were detected by the virus-induced CPE assay. Briefly, cells (3 × 10^4 cells/well) were plated into 96-well culture plates and incubated for 16 h. Then, remove the medium and infected cells with EV71 of 100 × TCID50 (50% tissue culture infective doses) in serum-free medium for 1 h at 37 °C. After that, the unbound viruses were removed and various concentrations of tested compounds were supplemented for incubation of another 72 h. […] TC50 defined as the concentration that leads to the 50% of CPE which determined by the same method in 72 h. In addition, the cells were stained the cells were colored with 0.5% crystal violet in 20% ethanol for 15 min at room temperature and the cells were imaged after rinsed with PBS.

[2] = tested on: EV71 JS-52 strain (genotype C4); assay: CPE inhibition assay for anti-EV71, JS-52 strain; format: cell-based, enterovirus 71 (EV71); conditions: Enterovirus A, EV71; Vero cells; CPE; calculated on the organic part; n = 3; read-out: JS-52 Strain IC50
Procedure: as §2, §1, §3

[3] = tested on: EV71 SHZH98 strain (genotype C4); assay: CPE inhibition assay for anti-EV71, SHZH98 strain; format: cell-based, enterovirus 71 (EV71); conditions: Enterovirus A, EV71; Vero cells; CPE; calculated on the organic part; n = 3; read-out: SHZH98 Strain IC50
Procedure: as §2, §1, §3

[4] = tested on: EV71 BrCr strain (VR-1775, genotype A); assay: CPE inhibition assay for anti-EV71, BrCr strain; format: cell-based, enterovirus 71 (EV71); conditions: Enterovirus A, EV71; Vero cells; CPE; calculated on the organic part; n = 3; read-out: BrCr Strain IC50
Procedure: as §2, §1, §3

melting point: 240 to 242 °C
Structure (SMILES): COc1cc2c(cc1OC)-c1cc3ccc(OC)c(OCC(=O)c4ccc(C(F)(F)F)cc4)c3c[n+]1CC2 (as salt: chloride) [4f, 2,3,10-Trimethoxy-9-p-trifloromethylphenylformylmethylenoxy protoberberine chloride]

melting point: 238 to 240 °C
Structure (SMILES): COc1ccc2cc3[n+](cc2c1OCC(=O)c1ccc(C(F)(F)F)cc1)CCc1cc2c(cc1-3)OCO2 (as salt: chloride) [2g, 2,3-Methylenedioxy-9-p-trifloromethylphenylformylmethylenoxy-10-methoxy protoberberine chloride]

melting point: 140 to 142 °C
Structure (SMILES): COc1cc2c(cc1OC(=O)OCc1ccccc1)CC[n+]1cc3c(OC)c(OC)ccc3cc1-2 (as salt: chloride) [5g, 2,9,10-Trimethoxy-3-benzyloxyformyloxy protoberberine chloride]

melting point: 218 to 220 °C
Structure (SMILES): COc1cccc(C(=O)COc2cc3c(cc2OC)-c2cc4ccc(OC)c(OC)c4c[n+]2CC3)c1 (as salt: chloride) [5e, 2,9,10-Trimethoxy-3-m-methoxyphenylformylmethylenoxy protoberberine chloride]

melting point: 234 to 236 °C
Structure (SMILES): CCOC(=O)COc1cc2c(cc1OC)-c1cc3ccc(OC)c(OC)c3c[n+]1CC2 (as salt: chloride) [5a, 2,9,10-Trimethoxy-3-ethyloxyformylmethylenoxy protoberberine chloride]

melting point: 200 to 202 °C
Structure (SMILES): COc1cccc(C(=O)COc2c(OC)ccc3cc4[n+](cc23)CCc2cc(OC)c(OC)cc2-4)c1 (as salt: chloride) [4e, 2,3,10-Trimethoxy-9-m-methoxyphenylformylmethylenoxy protoberberine chloride]

melting point: 218 to 220 °C
Structure (SMILES): COc1cc2c(cc1OCC(=O)c1ccc(C)cc1)CC[n+]1cc3c(OC)c(OC)ccc3cc1-2 (as salt: chloride) [5d, 2,9,10-Trimethoxy-3-p-methylphenylformylmethylenoxy protoberberine chloride]

melting point: 98 to 100 °C
Structure (SMILES): COc1cc2c(cc1OC)-c1cc3ccc(OC)c(OC(=O)OCc4ccccc4)c3c[n+]1CC2 (as salt: chloride) [4g, 2,3,10-Trimethoxy-9-benzyloxyformyloxy protoberberine chloride]

melting point: 214 to 216 °C
Structure (SMILES): COc1cccc(C(=O)COc2c(OC)ccc3cc4[n+](cc23)CCc2cc3c(cc2-4)OCO3)c1 (as salt: chloride) [2f, 2,3-Methylenedioxy-9-m-methoxyphenylformylmethylenoxy-10-methoxy protoberberine chloride]

melting point: 213 to 215 °C
Structure (SMILES): COc1cc2c(cc1OCC(=O)c1ccc(C(F)(F)F)cc1)CC[n+]1cc3c(OC)c(OC)ccc3cc1-2 (as salt: chloride) [5f, 2,9,10-Trimethoxy-3-p-trifloromethylphenylformylmethylenoxy protober berine chloride]

melting point: 228 to 230 °C
Structure (SMILES): COc1cc2c(cc1OC)-c1cc3ccc(OC)c(OCC(=O)c4ccc(C)cc4)c3c[n+]1CC2 (as salt: chloride) [4d, 2,3,10-Trimethoxy-9-p-tolylformylmethylenoxy protoberberine chloride]

melting point: 227 to 229 °C
Structure (SMILES): COc1cc2c(cc1OC)-c1cc3ccc(OC)c(OCC(=O)C(C)(C)C)c3c[n+]1CC2 (as salt: chloride) [4b, 2,3,10-Trimethoxy-9-pivalylmethylenoxy protoberberine chloride]

melting point: 217 to 219 °C
Structure (SMILES): COc1cc2c(cc1OCC(=O)OCc1ccccc1)CC[n+]1cc3c(OC)c(OC)ccc3cc1-2 (as salt: chloride) [5c, 2,9,10-Trimethoxy-3-benzyloxyformylmethylenoxy protoberberine chloride]

melting point: 218 to 220 °C
Structure (SMILES): CCOC(=O)Oc1c(OC)ccc2cc3[n+](cc12)CCc1cc2c(cc1-3)OCO2 (as salt: chloride) [2i, 2,3-Methylenedioxy-9-ethyloxyformyloxy-10-methoxy protoberberine chloride]

melting point: 195 to 197 °C
Structure (SMILES): COc1ccc2cc3[n+](cc2c1OC(=O)OCc1ccccc1)CCc1cc2c(cc1-3)OCO2 (as salt: chloride) [2h, 2,3-Methylenedioxy-9-benzyloxyformyloxy-10-methoxy protoberberine chloride]

IC50 [1]: > 143 µM
IC50 [2]: 99.3 µM
IC50 [3]: > 143 µM
IC50 [4]: 81.1 µM
Structure (SMILES): COc1cc2c(cc1OC)-c1cc3ccc(OC)c(OCC(=O)OCc4ccccc4)c3c[n+]1CC2 [4c, 2,3,10-Trimethoxy-9-benzyloxyformylmethylenoxy protoberberine chloride]
TC50 (median toxic concentration) (Vero cells): 452 µM

IC50 [1]: > 15.9 µM
IC50 [2]: 9.01 µM
IC50 [3]: 12 µM
IC50 [4]: > 15.9 µM
Structure (SMILES): COc1cc2c(cc1OCC(=O)c1ccc(C)cc1)CC[n+]1cc3c(OC)c(OC)ccc3cc1-2 [5d, 2,9,10-Trimethoxy-3-p-methylphenylformylmethylenoxy protoberberine chloride]
TC50 (median toxic concentration) (Vero cells): 41.0 µM

melting point: 219 to 221 °C
Structure (SMILES): COc1ccc2cc3[n+](cc2c1OCC(=O)c1ccc(C)cc1)CCc1cc2c(cc1-3)OCO2 (as salt: chloride) [2e, 2,3-Methylenedioxy-9-p-tolylformylmethylenoxy-10-methoxy protoberberine chloride]

IC50 [1]: 144 µM
IC50 [2]: > 144 µM
IC50 [3]: > 144 µM
IC50 [4]: > 144 µM
Structure (SMILES): CCOC(=O)COc1c(OC)ccc2cc3[n+](cc12)CCc1cc(OC)c(OC)cc1-3 [4a, 2,3,10-Trimethoxy-9-ethyloxyformylmethylenoxy protoberberine chloride]
TC50 (median toxic concentration) (Vero cells): 434 µM

melting point: 242 to 244 °C
Structure (SMILES): COc1ccc2cc3[n+](cc2c1OCC(=O)C(C)(C)C)CCc1cc2c(cc1-3)OCO2 (as salt: chloride) [2c, 2,3-Methylenedioxy-9-pivalylmethylenoxy-10-methoxy protoberberine chloride]

IC50 [1]: 143 µM
IC50 [2]: 51.3 µM
IC50 [3]: 86.7 µM
IC50 [4]: 82.8 µM
Structure (SMILES): COc1cc2c(cc1OC(=O)OCc1ccccc1)CC[n+]1cc3c(OC)c(OC)ccc3cc1-2 [5g, 2,9,10-Trimethoxy-3-benzyloxyformyloxy protoberberine chloride]
TC50 (median toxic concentration) (Vero cells): 265 µM
anti-EV71 activity against H strain, in words [1]: partially or completely lost

melting point: 196 to 198 °C
Structure (SMILES): COc1cc2c(cc1OC)-c1cc3ccc(OC)c(OCC(=O)OCc4ccccc4)c3c[n+]1CC2 (as salt: chloride) [4c, 2,3,10-Trimethoxy-9-benzyloxyformylmethylenoxy protoberberine chloride]

IC50 [1]: 13.6 µM
IC50 [2]: 19.4 µM
IC50 [3]: 27.6 µM
IC50 [4]: 17.1 µM
Structure (SMILES): COc1cccc(C(=O)COc2c(OC)ccc3cc4[n+](cc23)CCc2cc(OC)c(OC)cc2-4)c1 [4e, 2,3,10-Trimethoxy-9-m-methoxyphenylformylmethylenoxy protoberberine chloride]
TC50 (median toxic concentration) (Vero cells): 143 µM
anti-EV71 activity against H strain, in words [1]: comparable activity to BBR

melting point: 223 to 225 °C
Structure (SMILES): COc1cc2c(cc1OCC(=O)C(C)(C)C)CC[n+]1cc3c(OC)c(OC)ccc3cc1-2 (as salt: chloride) [5b, 2,9,10-Trimethoxy-3-pivalylmethylenoxy protoberberine chloride]

IC50 [1]: 48.3 µM
IC50 [2]: 45.5 µM
IC50 [3]: 60.4 µM
IC50 [4]: 32.3 µM
Structure (SMILES): CCOC(=O)COc1c(OC)ccc2cc3[n+](cc12)CCc1cc2c(cc1-3)OCO2 [2a, 2,3-Methylenedioxy-9-ethyloxyformylmethylenoxy-10-methoxy protoberberine chloride]
TC50 (median toxic concentration) (Vero cells): 223 µM

Reference: article PMC6222558, “Synthesis and Evolution of Berberine Derivatives as a New Class of Antiviral Agents against Enterovirus 71 through the MEK/ERK Pathway and Autophagy” (Molecules : A Journal of Synthetic Chemistry and Natural …, 2018)
